In the Biogen ADME set (Fang et al. 2023):
≈ marks a conversion by molar mass, not a printed value. Non-standard residues stand in square brackets, D forms with d. Residues, ends and D or L forms follow the SMILES beside them. *: point of attachment. Fmoc = O=C(OCC1c2ccccc2-c2ccccc21)*; Cha = N[C@@H](CC1CCCCC1)C(=O)O; AMC = Cc1cc(=O)oc2cc(N*)ccc12

Details: for aqueous solubility: pH 6.8

SMILES	MDR1-MDCK efflux ratio	intrinsic clearance, human liver microsomes [mL/min/kg]	intrinsic clearance, rat liver microsomes [mL/min/kg]	aqueous solubility [µg/mL]	fraction unbound, human plasma	fraction unbound, rat plasma
O=C(Cc1c(F)cccc1Cl)Nc1cccc2cnccc12	0.889	62.6	288	2.09 (≈ 6.64 µM)	–	–
Cc1cc(N(CCO)CCCO)ncc1Br	0.766	12.4	478	–	–	–
Cc1cc(C)c(-c2csc(CC(N)=O)n2)cc1C	0.831	–	–	–	–	–
CNC(=O)c1cccc(Cn2nnc(-c3ccccc3Cl)n2)c1	9.33	16.5	775	22.9 (≈ 70 µM)	–	–
CCCC(=O)Nc1ccc(C)c2ncccc12	0.743	8.73	28.1	50.2 (≈ 220 µM)	–	–
CCCCc1c(C)[nH]c2nc(N(Cc3cccs3)C(C)=O)nn2c1=O	26	13.7	81	39 (≈ 108 µM)	–	–
COc1ccc(-c2ccccc2)c(NS(=O)(=O)c2cc(O)c(Cl)cc2Cl)c1	–	–	–	27.6 (≈ 65 µM)	–	–
Cc1ccc(NC(=O)c2cccc(N(C)C)c2)cc1NC(=O)c1ccc(O)cc1	16.6	45.4	307	3.3 (≈ 8.47 µM)	–	–
COc1cc(/C=C/c2nccc(C#N)n2)ccc1F	–	–	–	3.27 (≈ 12.8 µM)	–	–
CCc1ccccc1S(=O)(=O)NCCc1cn[nH]c1	2.65	34.8	533	–	–	–
CCOc1ccc(Oc2ccc(OCc3cc(F)ccc3F)cc2)c(N)c1	–	8.79	104	–	–	–
CCc1nnc(N2CCCO2)c(C#N)c1CC	0.746	16.6	147	–	–	–
O=C(Nc1ccn(Cc2ccccn2)n1)c1c(F)cccc1I	2.85	≤ 4.74	132	61.2 (≈ 145 µM)	–	–
CCc1nc2cc(-c3c(OC)cccc3OC)ccc2o1	0.46	49.6	3760	19 (≈ 67.1 µM)	–	–
CCCc1nnc(NCc2cn3ccc(C)cc3n2)o1	3.5	≤ 4.74	34	21.9 (≈ 80.9 µM)	–	–
Nc1ncnc2ccc(-c3ccnc(F)c3)nc12	0.726	≤ 4.74	≤ 10.7	–	–	–
Cc1cccc(NC(=O)c2ccccc2-c2ccccc2)n1	0.551	64.2	686	33.1 (≈ 115 µM)	–	–
CCSCc1nc(N)c2ccccc2n1	0.681	30.3	121	30.4 (≈ 139 µM)	–	–
O=C(COc1ccc2ccc(=O)oc2c1)Nc1cccc(COCc2ccco2)c1	–	77.5	425	21.4 (≈ 52.7 µM)	–	–
Cc1ccc(Cn2nc(C(=O)N[C@@H]3C(C)(C)[C@@H]4CC[C@@]3(C)C4)cc2-c2ccc(Cl)c(C)c2)cc1	0.636	181	676	1.29 (≈ 2.71 µM)	–	–
O=C1/C(=C2/CCCCCN2)C(Nc2ccccc2)=NN1c1ccccc1	0.737	–	–	0.54 (≈ 1.56 µM)	–	–
N#CCNC(=O)c1ccc(C#N)c(Cl)c1	–	≤ 4.74	≤ 10.7	–	–	–
COc1cc(/C=C2\CCCN([C@@H](C)c3ccc(F)cc3)C2=O)ccc1-n1cnc(C)c1	1.48	44.4	83.1	12.9 (≈ 30.8 µM)	–	–
N#Cc1ccc(-c2cccc(CN)c2)s1	–	356	557	–	–	–
COc1cc(OC)cc(C(=O)Nc2nc3c(s2)COc2ccccc2-3)c1	–	–	–	0.39 (≈ 1.06 µM)	–	–

Next, values leading:

MDR1-MDCK efflux ratio	intrinsic clearance, human liver microsomes [mL/min/kg]	intrinsic clearance, rat liver microsomes [mL/min/kg]	aqueous solubility [µg/mL]	fraction unbound, human plasma	fraction unbound, rat plasma	SMILES
36.4	9.21	123	13.7 (≈ 41 µM)	–	–	OCCn1cc(-c2ccc3c(c2)CC/C3=N\O)c(-c2ccncc2)n1
0.783	≤ 4.74	≤ 10.7	83.3 (≈ 278 µM)	–	–	CC1(C)CN(C(=O)c2cncc(Br)c2)CCO1
24.7	≤ 4.74	≤ 10.7	49.4 (≈ 154 µM)	–	–	CCc1cnc(CNC(=O)N2CCC(n3cncn3)CC2)s1
16.5	≤ 4.74	≤ 10.7	41.4 (≈ 167 µM)	–	–	Cc1nc(O)cc(C2CN(C3CCCCC3)C2)n1
46.4	8.13	37.4	45 (≈ 109 µM)	0.0183	0.0409	O=C(Nc1cccc(-c2nncn2C2CC2)c1)c1cc(-n2cnc(C3CC3)c2)ccn1
0.572	≤ 4.74	≤ 10.7	54.3 (≈ 142 µM)	–	–	O=C(Nc1ccc(C(=O)O)c(O)c1)c1ccc(NC(=O)c2cccs2)cc1
6.36	7.74	179	–	–	–	Cn1cc(CN2CCCC(c3ccnc(Nc4cnccn4)c3)C2)cn1 (stereo unspecified)
1.96	29	728	–	–	–	OCc1nnc(SCCSC2CCCCC2)n1C1CC1
–	756	2350	–	–	–	COc1ccnc(N2CCCN(Cc3ccccc3C)CC2)n1
–	122	1600	–	–	–	Cc1cc(-c2cccc3ccnn23)nc(N2CCCC2)n1
6.74	109	943	–	–	–	CCOc1ccc2[nH]c(C(=O)N3CC[C@@](O)(CC(C)C)[C@@H](Oc4ccc(F)cc4)C3)c(C)c2c1
–	≤ 4.74	≤ 10.7	31.9 (≈ 133 µM)	–	–	O=C(O)c1cnn(-c2ccncc2)c1C(F)F
–	–	–	61.2 (≈ 165 µM)	–	–	Cc1nonc1C(=O)NCCc1c[nH]c2cccc(C3(O)CCOCC3)c12
0.474	147	2320	31.2 (≈ 98.9 µM)	–	–	O=C(NCc1ccc2c(c1)OCCO2)c1sccc1C1CC1
0.474	780	2050	–	–	–	COC(=O)c1cccc2c1CCCN2C(=O)c1ccccc1
22.4	–	–	5.79 (≈ 15 µM)	–	–	O=C(Cn1nc2n(c1=O)-c1ccccc1C1=NCCN12)N1CCc2ccccc21
–	≤ 4.74	≤ 10.7	42.9 (≈ 143 µM)	–	–	C#CCN1CCN(Cc2nc(O)cc(C(F)(F)F)n2)CC1

MDR1-MDCK efflux ratio	intrinsic clearance, human liver microsomes [mL/min/kg]	intrinsic clearance, rat liver microsomes [mL/min/kg]	aqueous solubility [µg/mL]	fraction unbound, human plasma	fraction unbound, rat plasma	SMILES
8.08	≤ 4.74	≤ 10.7	50.7 (≈ 155 µM)	–	–	CC(C)[C@H](NC(=O)c1c(F)cccc1F)C(=O)N1CCOCC1
22.3	127	6150	–	–	–	Cc1ccc(F)cc1S(=O)(=O)Nc1ccc(C(=O)N2CCCC2)cc1
6.74	19.3	283	40.5 (≈ 107 µM)	–	–	O=C(NCCCNC(=O)c1cc2ccccc2[nH]1)c1ccc2c(c1)OCCO2
3.54	≤ 4.74	≤ 10.7	60 (≈ 181 µM)	–	–	Cc1nc(N2CCN(C)CC2)nc(C)c1NC(=O)C1CCCCC1
1.4	≤ 4.74	2290	–	–	–	COc1cccc(OC)c1-c1ccc(OCCN2CCCC2)cc1
1.11	≤ 4.74	≤ 10.7	–	–	–	Cc1cc(=O)oc2cc(NC(=O)[C@H](CCCCN)NC(=O)[C@H](CC3CCCCC3)NC(=O)OCC3c4ccccc4-c4ccccc43)ccc12 (Fmoc-[Cha]-Lys-{AMC})
0.912	37.2	1210	38.4 (≈ 153 µM)	–	–	COc1c(N)ncnc1N1CCCC(C)(C)CC1
117	44.7	840	–	–	–	CNCc1cc(N(C)C)nc(C2CCCN2C(=O)c2oc3ccc(Cl)cc3c2C)n1 (stereo unspecified)
0.838	22.4	257	22 (≈ 68.4 µM)	–	–	O=C(NC1CCCCC1)C1CCN(c2ccncc2Cl)CC1
11.8	35.8	17.8	11.7 (≈ 24.2 µM)	–	–	CCc1cc2c(cc1N1CCC(N3CCOCC3)CC1)C(C)(C)c1[nH]c3cc(C#N)ccc3c1C2=O
1.12	≤ 4.74	≤ 10.7	–	–	–	CC(=O)NCc1cc2n(n1)CCN(C1Cc3ccccc3C1)C2
–	≤ 4.74	≤ 10.7	57.3 (≈ 228 µM)	–	–	Cn1cc(C(=O)N2CCC(CC(=O)O)CC2)cn1
2.82	≤ 4.74	≤ 10.7	30.7 (≈ 146 µM)	–	–	O=C(CC(=O)N1CCCC1)N1CCCC1
12.2	54.3	294	65.1 (≈ 157 µM)	–	–	Cc1nc(-c2cnn(C)c2-c2ccc(C(F)(F)F)cn2)c2c(N3CCC3)ncnn12
–	17	242	–	–	–	Cc1ccn(CCC(=O)N2CCc3nc4sccc4c(=O)n3CC2)n1
5.03	44.9	541	50.6 (≈ 159 µM)	–	–	CN(CC1CCCC1)C(=O)Nc1ccccc1N1CCOC1=O
